Experimental data from patent US12570612B2, “Substituted nitrogen heterocyclic compound and anesthetic effect thereof” (priority 2019, dated 2026).
Entries after “also recorded” stand apart in the source; their conditions may differ. Like-named read-outs stand apart in the source and are kept apart here.

Assays:
[1] = test system: Sprague-Dawley rats; assay: animal or person; settings: for Approximate therapeutic index / Minimal lethal dose: rats
Description: Adult male Sprague-Dawley rats (250-300 g) were selected for the experiment. […] The anesthesia effects of the compounds were assessed in rats using a LORR assay and a period >30 s was considered as an indicator of general anesthesia.

[2] = test system: Sprague-Dawley rats; assay: Pharmacological characteristics at equivalent doses (2ED50), Group A compounds; type: in vivo; set-up: Sedation duration: unit not given here; settings: 2ED50, tail vein; for Types and incidence of adverse reactions: (animals affected/animals)
[3] = test system: H295R cell line; assay: Adrenocortical function in vitro test: secretion of cortisol and corticosterone, Group A compounds; type: cell-based; settings: H295 cells; for EC50: 0.1-10000 nM, HPLC-MS/MS
[4] = Homo sapiens, read-out: EC50 (Corticosterone)
[5] = Homo sapiens, read-out: EC50 (Cortisol)
[6] = LORR in rats, tail vein, brackets = 95% confidence limit
[7] = read-out: EC50 (Corticosterone)

Structure (SMILES) | ED50 ([1]; Rattus norvegicus) | Approximate therapeutic index [1] | Minimal lethal dose [1] | Onset time [2] | Righting reflex duration [2] | Types and incidence of adverse reactions [2] | Corticosterone as an indicator to determine the presence of inhibition [3] | Cortisol as an indicator to determine the presence of inhibition [3] | EC50 [3, 4] | EC50 [3, 5] | ED50 [1, 6] | Sedation duration [2] | EC50 [3, 7] | EC50 ([3]; read-out: EC50 (Cortisol))
CC#CC(C)OC(=O)c1ccnn1[C@H](C)c1ccccc1 (stereo partly shown) [Compound A11] | 1 to 2 mg/kg | >4 | >8 mg/kg | 0.41 ± 0.15 min | 2.65 ± 1.10 min | Red urine(6/6), General; also recorded: Tremor(4/6), Hindlimb; also recorded: rigidity (2/6),; also recorded: Convulsion(1/6),; also recorded: Euphoria(1/6) | 0 | 0 | > 0.1 µM | > 0.1 µM | – | – | – | –
CCC(CC)OC(=O)c1ccnn1[C@H](C)c1ccccc1 [Compound A21] | – | >16 | >6 mg/kg | 0.51 ± 0.10 min | 1.16 ± 0.39 min | Red and urine(8/8), Euphoria(3/8), and Four limbs Tremor(2/8), and Hindlimb rigidity (2/8) | 0 | 0 | – | – | D (D indicates that the measured ED50 is in the range of 2.00-6.00 mg/kg (excluding 2.00 mg/kg, including 6.00 mg/kg)) | 8.65 ± 2.38 | > 0.1 µM | > 0.1 µM
CC#CCOC(=O)c1c(F)cnn1[C@H](C)c1ccccc1 [Compound A72] | 0.04 to 0.5 mg/kg | >100 | >11 mg/kg | 0.41 ± 0.17 min | 0.71 ± 0.20 min | Red and urine(8/8), Tremor(1/8), and Hindlimb rigidity (1/8) | 0 | 0 | > 1 µM | > 1 µM | – | – | – | –
C=C=CC1(OC(=O)c2c(C(F)(F)F)cnn2[C@H](C)c2ccccc2)COC1 [Compound A100] | 2 to 6 mg/kg | >6 | >14 mg/kg | 0.49 ± 0.17 min | 3.21 ± 0.89 min | Red urine(8/8), Indirect; also recorded: tremor Tremor(4/8), Four; also recorded: limbs; also recorded: rigidity(2/8), Euphoria(2/8) | 0 | 0 | > 0.1 µM | > 0.1 µM | – | – | – | –
C=CC#CC(C)(C)OC(=O)c1ccnn1[C@H](C)c1ccccc1 [Compound A16] | 2 to 6 mg/kg | >4 | >12 mg/kg | 0.55 ± 0.21 min | 2.55 ± 1.54 min | – | 0 | 0 | > 0.1 µM | > 0.1 µM | – | – | – | –
C[C@H](c1ccccc1)n1nc(F)cc1C(=O)OC(C)(C)C [Compound A57] | 2 to 6 mg/kg | >7 | >15 mg/kg | 0.42 ± 0.16 min | 1.48 ± 0.51 min | Red and urine(7/7), GeneralTremor and (2/7), Tetany and convulsion(2/7) | 0 | 0 | > 0.1 µM | > 0.1 µM | – | – | – | –
C=CC1(OC(=O)c2cc(F)nn2[C@H](C)c2ccccc2)COC1 [Compound A65] | 2 to 6 mg/kg | >7 | >16 mg/kg | 0.36 ± 0.15 min | 2.48 ± 0.67 min | Red and urine(8/8), Tremor(2/8) | 0 | 0 | > 0.1 µM | > 0.1 µM | – | – | – | –
CC(=O)C1=C(OC(=O)c2c(F)c(F)nn2[C@H](C)c2ccccc2)CCC1 [Compound A98] | 1 to 2 mg/kg | >7 | >10 mg/kg | 0.30 ± 0.06 min | 1.89 ± 0.23 min | Red urine(8/8), Facial; also recorded: muscle; also recorded: twitching(2/8), Hindlimb; also recorded: rigidity (1/8) | 0 | 0 | > 1 µM | > 1 µM | – | – | – | –
CC(=O)C1=C(OC(=O)c2ccnn2[C@H](C)c2ccccc2)CCC1 [Compound A18] | 2 to 6 mg/kg | >3 | >8 mg/kg | 0.73 ± 0.10 min | 1.19 ± 0.64 min | Red urine(8/8), Hindlimb; also recorded: rigidity(5/8) | 0 | 0 | > 0.1 µM | > 0.1 µM | – | – | – | –
C#CC1(OC(=O)c2cc(F)nn2[C@H](C)c2ccccc2)COC1 [Compound A53] | 2 to 6 mg/kg | >6 | >14 mg/kg | 0.53 ± 0.28 min | 3.01 ± 1.22 min | Red and urine(8/8), Tremor(2/8) | 0 | 0 | > 0.1 µM | > 0.1 µM | – | – | – | –
CO[C@H]1C[C@@H](OC(=O)c2c(F)c(F)nn2[C@H](C)c2ccccc2)C1 [Compound A94] | 0.5 to 1 mg/kg | >12 | >12 mg/kg | 0.33 ± 0.12 min | 1.26 ± 0.40 min | Red and urine(8/8), Tremor(3/8), and Four limbs and rigidity(2/8), Euphoria(1/8) | 0 | 0 | > 1 µM | > 1 µM | – | – | – | –
CCOC(=O)c1ccnn1[C@H](C)c1ccccc1 [Compound A1] | 1 to 2 mg/kg | >8 | >16 mg/kg | 0.56 ± 0.26 min | 2.24 ± 1.29 min | – | 0 | 0 | > 1 µM | > 1 µM | – | – | – | –
CC#CC(C)(C)OC(=O)c1ccnn1[C@H](C)c1ccccc1 [Compound A12] | 1 to 2 mg/kg | >4 | >6 mg/kg | 0.69 ± 0.22 min | 3.16 ± 2.13 min | Red urine(8/8),; also recorded: Tremor(3/8),; also recorded: Euphoria(1/8), Hindlimb; also recorded: rigidity (1/8), Clonic; also recorded: convulsion(1/8), Tetany; also recorded: Apnea(1/8), Nod(1/8) | 0 | 0 | > 0.1 µM | > 0.1 µM | – | – | – | –
C=CC#CC(C)OC(=O)c1ccnn1[C@H](C)c1ccccc1 (stereo partly shown) [Compound A15] | 2 to 6 mg/kg | >4 | >9 mg/kg | 0.40 ± 0.10 min | 1.82 ± 0.76 min | Red urine(8/8),; also recorded: Euphoria(2/8), Hindlimb; also recorded: rigidity(2/8), Hindlimb; also recorded: Tremor(1/8) | 0 | 0 | > 0.1 µM | > 0.1 µM | – | – | – | –
CCOC(=O)c1c(F)cnn1[C@H](C)c1ccccc1 [Compound A70] | 1 to 2 mg/kg | >6 | >12 mg/kg | 0.31 ± 0.08 min | 2.51 ± 1.03 min | – | 0 | 0 | > 0.1 µM | > 0.1 µM | – | – | – | –
CC#CC(C)(C)OC(=O)c1c(F)cnn1[C@H](C)c1ccccc1 [Compound A83] | 1 to 2 mg/kg | >10 | >12 mg/kg | 0.43 ± 0.32 min | 3.21 ± 0.41 min | – | 0 | 0 | > 1 µM | > 1 µM | – | – | – | –
CC#CC1(OC(=O)c2ccnn2[C@H](C)c2ccccc2)COC1 [Compound A10] | 2 to 6 mg/kg | >5 | >12 mg/kg | 0.43 ± 0.22 min | 1.32 ± 0.61 min | Red urine(8/8),; also recorded: Tremor(3/8), Forelimb; also recorded: clonic; also recorded: convulsion(2/8), Hindlimb; also recorded: rigidity(2/8), Facial; also recorded: muscle twitching(2/8),; also recorded: Nod(1/8) | 0 | 0 | > 1 µM | > 1 µM | – | – | – | –
C[C@H](c1ccccc1)n1nccc1C(=O)OCC1CC1 [Compound A3] | – | >6 | >8 mg/kg | 0.13 ± 0.04 min | 2.73 ± 1.08 min | Red urine(8/8), Hindlimb; also recorded: rigidity (1/8) | 0 | 0 | – | – | C (C indicates that the measured ED50 is in the range of 1.00-2.00 mg/kg (excluding 1.00 mg/kg, including 2.00 mg/kg)) | 5.76 ± 0.80 | > 1 µM | > 1 µM
